Source: PubChem BioAssay AID248 (DTP/NCI, 2004)
Several values for one entry are separate records, joined by “and”; a condition that tells them apart may be missing. Identical values can stand only once. Toxic doses and inconclusive results are not listed. Cut-off read from the data, not from the text of the source: active = T/C of 150% or more; inactive = T/C below 125%.

System: L1210 leukemia ip in BDF1 mice, survival T/C
Test: NCI In Vivo Anticancer Drug Screen. Data for tumor model L1210 Leukemia (intraperitoneal) in B6D2F1 (BDF1) mice
Details: endpoint: mean survival time, higher = longer survival
Procedure, shortened: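 Antitumor effect is assessed in tumor-bearing animals. Survival in the compound arm is compared with a vehicle-dosed control arm and expressed as their quotient.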

[1] = dose: 100.0 mg/kg/injection, schedule: Q01DX009 (ip), vehicle: saline with Tween-80
[2] = dose: 200.0 mg/kg/injection, schedule: Q01DX009 (ip), vehicle: saline with Tween-80
[3] = dose: 100.0 mg/kg/injection, schedule: Q01DX001 (ip), vehicle: saline with Tween-80
[4] = dose: 200.0 mg/kg/injection, schedule: Q01DX001 (ip), vehicle: saline with Tween-80
[5] = dose: 400.0 mg/kg/injection, schedule: Q01DX001 (ip), vehicle: saline with Tween-80
[6] = dose: 25.0 mg/kg/injection, schedule: Q04DX003 (ip), vehicle: saline with Tween-80
[7] = dose: 50.0 mg/kg/injection, schedule: Q04DX003 (ip), vehicle: saline with Tween-80
[8] = dose: 100.0 mg/kg/injection, schedule: Q04DX003 (ip), vehicle: saline with Tween-80
[9] = dose: 200.0 mg/kg/injection, schedule: Q04DX003 (ip), vehicle: saline with Tween-80
[10] = dose: 400.0 mg/kg/injection, schedule: Q04DX003 (ip), vehicle: saline with Tween-80
[11] = dose: 100.0 mg/kg/injection, schedule: Q01DX001 (ip), vehicle: acetone
[12] = dose: 200.0 mg/kg/injection, schedule: Q01DX001 (ip), vehicle: acetone
[13] = dose: 400.0 mg/kg/injection, schedule: Q01DX001 (ip), vehicle: acetone

Measured: T/C

CC1(C)COC(=S)N1
inactive: dose: 3.13 mg/kg/injection, schedule: Q01DX009 (ip), vehicle: Klucel (hydroxypropylcellulose) (HPC) 100 % of control | dose: 5.0 mg/kg/injection, schedule: Q01DX009 (ip), vehicle: saline 100 % of control | dose: 5.0 mg/kg/injection, schedule: Q04DX003 (ip), vehicle: saline 98 % of control | dose: 6.25 mg/kg/injection, schedule: Q01DX009 (ip), vehicle: Klucel (hydroxypropylcellulose) (HPC) 103 % of control | dose: 10.0 mg/kg/injection, schedule: Q01DX009 (ip), vehicle: Klucel (hydroxypropylcellulose) (HPC) 97 % of control | dose: 10.0 mg/kg/injection, schedule: Q01DX009 (ip), vehicle: saline 100 % of control | dose: 10.0 mg/kg/injection, schedule: Q04DX003 (ip), vehicle: saline 102 % of control | dose: 12.5 mg/kg/injection, schedule: Q01DX009 (ip), vehicle: Klucel (hydroxypropylcellulose) (HPC) 97 % of control and 87 % of control | dose: 20.0 mg/kg/injection, schedule: Q04DX003 (ip), vehicle: Klucel (hydroxypropylcellulose) (HPC) 100 % of control | dose: 20.0 mg/kg/injection, schedule: Q04DX003 (ip), vehicle: saline 101 % of control

Cc1ccc(C(=O)CCCCCCCCC(=O)c2ccc(C)cc2)cc1
inactive: dose: 50.0 mg/kg/injection, schedule: Q01DX009 (ip), vehicle: saline with Tween-80 97 % of control | [1] 89 % of control | [2] 89 % of control

CN(C)N=Nc1ccccc1CO
inactive: dose: 1.0 mg/kg/injection, schedule: Q01DX009 (ip), vehicle: other 94 % of control | dose: 2.0 mg/kg/injection, schedule: Q01DX009 (ip), vehicle: other 103 % of control | dose: 4.0 mg/kg/injection, schedule: Q01DX009 (ip), vehicle: other 103 % of control | dose: 8.0 mg/kg/injection, schedule: Q01DX009 (ip), vehicle: other 103 % of control | dose: 25.0 mg/kg/injection, schedule: Q04DX003 (ip), vehicle: other 105 % of control | dose: 50.0 mg/kg/injection, schedule: Q04DX003 (ip), vehicle: other 120 % of control

Cn1c(=S)[nH]c2cn[nH]c2c1=O
inactive: [3] 93 % of control | [4] 97 % of control | [5] 89 % of control

Cc1ncc(C#N)c(=O)[nH]1
inactive: [6] 92 % of control | [7] 90 % of control | [8] 90 % of control

COc1ccc(C(=O)c2ccccc2NC(C)=O)cc1
inactive: [8] 89 % of control | [9] 98 % of control | [10] 94 % of control

CNc1nnnn1-c1ccccc1
inactive: [11] 95 % of control | [12] 100 % of control | [13] 95 % of control

O=C(O)C(=O)Nc1ncccc1C(=O)O
inactive: dose: 100.0 mg/kg/injection, schedule: Q04DX002 (ip), vehicle: Klucel (hydroxypropylcellulose) (HPC) 114 % of control | dose: 200.0 mg/kg/injection, schedule: Q04DX002 (ip), vehicle: Klucel (hydroxypropylcellulose) (HPC) 100 % of control | dose: 400.0 mg/kg/injection, schedule: Q04DX002 (ip), vehicle: Klucel (hydroxypropylcellulose) (HPC) 103 % of control

Brc1cc(Br)c2[nH]c(-c3ccccc3)cc2c1
inactive: dose: 100.0 mg/kg/injection, schedule: Q01DX001 (ip), vehicle: carboxymethylcellulose (CMC) 95 % of control | dose: 200.0 mg/kg/injection, schedule: Q01DX001 (ip), vehicle: carboxymethylcellulose (CMC) 90 % of control | dose: 400.0 mg/kg/injection, schedule: Q01DX001 (ip), vehicle: carboxymethylcellulose (CMC) 88 % of control

CC(=O)OCN1C(=O)C2C3CCC(O3)C2C1=O (configuration not stated)
inactive: [6] 104 % of control | [7] 98 % of control | [3] 106 % of control | [8] 95 % of control and 104 % of control | [4] 98 % of control

NCC(c1ccccc1)C(Cc1ccccc1)[N+](=O)[O-] (configuration not stated)
inactive: dose: 75.0 mg/kg/injection, schedule: Q01DX001 (ip), vehicle: other 115 % of control | dose: 150.0 mg/kg/injection, schedule: Q01DX001 (ip), vehicle: other 104 % of control

N#CCN(CC#N)CC#N
inactive: dose: 3.13 mg/kg/injection, schedule: Q04DX003 (ip), vehicle: saline with Tween-80 102 % of control | dose: 6.25 mg/kg/injection, schedule: Q04DX003 (ip), vehicle: saline with Tween-80 111 % of control

O=C(O)c1ccc(NC(=O)c2ccc3ccccc3c2O)cc1
inactive: [3] 104 % of control | [1] 109 % of control | [8] 102 % of control | [4] 103 % of control | [2] 110 % of control | [9] 100 % of control | [5] 101 % of control | [10] 96 % of control

O=[N+]([O-])C(=C\c1ccccc1)/C(=C(/Br)[N+](=O)[O-])c1ccccc1
inactive: dose: 75.0 mg/kg/injection, schedule: Q01DX001 (ip), vehicle: saline 95 % of control | dose: 150.0 mg/kg/injection, schedule: Q01DX001 (ip), vehicle: saline 92 % of control

COC1(c2ccco2)OC1(C)C (configuration not stated)
inactive: dose: 5.0 mg/kg/injection, schedule: Q01DX009 (ip), vehicle: saline with Tween-80 94 % of control | dose: 5.0 mg/kg/injection, schedule: Q04DX003 (ip), vehicle: saline with Tween-80 96 % of control | dose: 10.0 mg/kg/injection, schedule: Q01DX009 (ip), vehicle: saline with Tween-80 97 % of control | dose: 10.0 mg/kg/injection, schedule: Q04DX003 (ip), vehicle: saline with Tween-80 102 % of control | dose: 20.0 mg/kg/injection, schedule: Q01DX009 (ip), vehicle: saline with Tween-80 116 % of control | dose: 20.0 mg/kg/injection, schedule: Q04DX003 (ip), vehicle: saline with Tween-80 98 % of control

O=C1Nc2ccc(C(=O)O)c(O)c2C1=O
inactive: dose: 50.0 mg/kg/injection, schedule: Q01DX001 (ip), vehicle: Klucel (hydroxypropylcellulose) (HPC) 112 % of control | dose: 100.0 mg/kg/injection, schedule: Q01DX001 (ip), vehicle: Klucel (hydroxypropylcellulose) (HPC) 112 % of control | dose: 200.0 mg/kg/injection, schedule: Q01DX001 (ip), vehicle: Klucel (hydroxypropylcellulose) (HPC) 102 % of control

COc1cc([N+](=O)[O-])c(C(OC(C)=O)OC(C)=O)cc1Br
inactive: [11] 98 % of control | dose: 100.0 mg/kg/injection, schedule: Q01DX009 (ip), vehicle: saline 94 % of control | dose: 100.0 mg/kg/injection, schedule: Q04DX003 (ip), vehicle: saline 105 % of control | [12] 88 % of control | dose: 200.0 mg/kg/injection, schedule: Q01DX009 (ip), vehicle: saline 86 % of control | dose: 200.0 mg/kg/injection, schedule: Q04DX003 (ip), vehicle: saline 109 % of control | [13] 97 % of control | dose: 400.0 mg/kg/injection, schedule: Q01DX009 (ip), vehicle: saline 88 % of control | dose: 400.0 mg/kg/injection, schedule: Q04DX003 (ip), vehicle: saline 105 % of control

c1ccc2cc3c(cc2c1)oc1cc2ccccc2cc13
inactive: dose: 100.0 mg/kg/injection, schedule: Q04DX003 (ip), vehicle: Klucel (hydroxypropylcellulose) (HPC) 120 % of control | dose: 200.0 mg/kg/injection, schedule: Q04DX003 (ip), vehicle: Klucel (hydroxypropylcellulose) (HPC) 101 % of control | dose: 400.0 mg/kg/injection, schedule: Q04DX003 (ip), vehicle: Klucel (hydroxypropylcellulose) (HPC) 107 % of control
